According to patent US20230398130A1, “METHODS AND COMPOSITIONS FOR DIFFERENTIATING STEM CELLS” (Massachusetts Institute of Technology, priority 2020, published 2023):

Assays:
ISC-enriched organoids [1] = experiment: Primary screen, 384-well 2.5-D organoid differentiation (ENR+CD, 6 days): basal lysozyme secretion (LYZ.NS); assay type: cell-based, murine; settings: primary screen; for Dose.FC.LYZ.NS: FC vs plate median; for Z.LYZ.NS: standard z score; for SSMD.LYZ.NS: strictly standardized mean difference
Text: (§1) High-throughput screening.

ISC-enriched organoids [2] = experiment: Primary screen, 384-well 2.5-D organoid differentiation (ENR+CD, 6 days): carbachol-induced lysozyme secretion (LYZ.S); assay type: cell-based, murine; settings: primary screen; for Dose.FC.LYZ.S: FC vs plate median; for Z.LYZ.S: standard z score; for SSMD.LYZ.S: strictly standardized mean difference
Text: as §1

ISC-enriched organoids [3] = experiment: Primary screen, 384-well 2.5-D organoid differentiation (ENR+CD, 6 days, Target Selective Inhibitor Library, vs whole-plate median): ATP (CellTiter-Glo 3D, CTG); settings: primary screen; for Dose.FC.CTG: FC vs plate median; for Z.CTG: standard z score; for SSMD.CTG: strictly standardized mean difference
[4] = 1st of the 4 dose lines of the treatment (dose not given)
[5] = 2nd of the 4 dose lines of the treatment (dose not given)
[6] = 3rd of the 4 dose lines of the treatment (dose not given)
[7] = 4th of the 4 dose lines of the treatment (dose not given)

Substance	Dose.FC.LYZ.NS (ISC-enriched organoids [1]; Dose 0.08 uM) [log 2 fold change]	Z.LYZ.NS (ISC-enriched organoids [1]; Dose 0.08 uM)	Dose.FC.LYZ.NS (ISC-enriched organoids [1]; Dose 0.40 uM) [log 2 fold change]	Z.LYZ.NS (ISC-enriched organoids [1]; Dose 0.40 uM)	Dose.FC.LYZ.NS (ISC-enriched organoids [1]; Dose 2.00 uM) [log 2 fold change]	Z.LYZ.NS (ISC-enriched organoids [1]; Dose 2.00 uM)	Dose.FC.LYZ.NS (ISC-enriched organoids [1]; Dose 10.00 uM) [log 2 fold change]	Z.LYZ.NS (ISC-enriched organoids [1]; Dose 10.00 uM)	SSMD.LYZ.NS (ISC-enriched organoids [1]; [4])	SSMD.LYZ.NS (ISC-enriched organoids [1]; [5])	SSMD.LYZ.NS (ISC-enriched organoids [1]; [6])	SSMD.LYZ.NS (ISC-enriched organoids [1]; [7])	Dose.FC.LYZ.S (ISC-enriched organoids [2]; Dose 0.08 uM) [log 2 fold change]	Dose.FC.LYZ.S (ISC-enriched organoids [2]; Dose 0.40 uM) [log 2 fold change]	Dose.FC.LYZ.S (ISC-enriched organoids [2]; Dose 2.00 uM) [log 2 fold change]	Dose.FC.LYZ.S (ISC-enriched organoids [2]; Dose 10.00 uM) [log 2 fold change]	Z.LYZ.S (ISC-enriched organoids [2]; [4])	Z.LYZ.S (ISC-enriched organoids [2]; [5])	Z.LYZ.S (ISC-enriched organoids [2]; [6])	Z.LYZ.S (ISC-enriched organoids [2]; [7])	further results
HA14-1	0.121	1.052	0.137	1.195	0.154	1.345	0.132	1.151	1.056	1.013	1.483	0.640	0.190	0.316	0.170	0.149	1.231	2.041	1.099	0.964	SSMD.LYZ.S (ISC-enriched organoids [2]; [4]): 1.264; SSMD.LYZ.S (ISC-enriched organoids [2]; [5]): 1.052; SSMD.LYZ.S (ISC-enriched organoids [2]; [6]): 1.202; SSMD.LYZ.S (ISC-enriched organoids [2]; [7]): 0.449; Dose.FC.CTG (ISC-enriched organoids [3]; Dose 0.08 uM): 0.534 log 2 fold change; Z.CTG (ISC-enriched organoids [3]; Dose 0.08 uM): 1.276; Dose.FC.CTG (ISC-enriched organoids [3]; Dose 0.40 uM): 0.526 log 2 fold change; Z.CTG (ISC-enriched organoids [3]; Dose 0.40 uM): 1.255; Dose.FC.CTG (ISC-enriched organoids [3]; Dose 2.00 uM): 0.554 log 2 fold change; Z.CTG (ISC-enriched organoids [3]; Dose 2.00 uM): 1.323; Dose.FC.CTG (ISC-enriched organoids [3]; Dose 10.00 uM): 0.388 log 2 fold change; Z.CTG (ISC-enriched organoids [3]; Dose 10.00 uM): 0.926; SSMD.CTG (ISC-enriched organoids [3]; [4]): 1.389; SSMD.CTG (ISC-enriched organoids [3]; [5]): 1.961; SSMD.CTG (ISC-enriched organoids [3]; [6]): 2.075; SSMD.CTG (ISC-enriched organoids [3]; [7]): 1.289
I-BET151 (GSK1210151A)	−0.116	−1.010	−0.248	−2.159	−0.299	−2.601	−0.284	−2.473	−0.856	−1.677	−1.629	−1.342	−0.242	−0.344	−0.416	−0.408	−1.563	−2.225	−2.687	−2.641	SSMD.LYZ.S (ISC-enriched organoids [2]; [4]): −1.087; SSMD.LYZ.S (ISC-enriched organoids [2]; [5]): −1.784; SSMD.LYZ.S (ISC-enriched organoids [2]; [6]): −1.815; SSMD.LYZ.S (ISC-enriched organoids [2]; [7]): −1.694; Dose.FC.CTG (ISC-enriched organoids [3]; Dose 0.08 uM): −0.016 log 2 fold change; Z.CTG (ISC-enriched organoids [3]; Dose 0.08 uM): −0.039; Dose.FC.CTG (ISC-enriched organoids [3]; Dose 0.40 uM): −0.174 log 2 fold change; Z.CTG (ISC-enriched organoids [3]; Dose 0.40 uM): −0.415; Dose.FC.CTG (ISC-enriched organoids [3]; Dose 2.00 uM): −0.502 log 2 fold change; Z.CTG (ISC-enriched organoids [3]; Dose 2.00 uM): −1.200; Dose.FC.CTG (ISC-enriched organoids [3]; Dose 10.00 uM): −0.935 log 2 fold change; Z.CTG (ISC-enriched organoids [3]; Dose 10.00 uM): −2.233; SSMD.CTG (ISC-enriched organoids [3]; [4]): −0.045; SSMD.CTG (ISC-enriched organoids [3]; [5]): −0.433; SSMD.CTG (ISC-enriched organoids [3]; [6]): −1.788; SSMD.CTG (ISC-enriched organoids [3]; [7]): −2.304
Ifenprodil Tartrate	0.056	0.492	−0.019	−0.161	0.123	1.068	−0.219	−1.909	0.372	−0.116	0.504	−1.176	0.050	0.017	−0.023	−0.301	0.325	0.107	−0.151	−1.947	SSMD.LYZ.S (ISC-enriched organoids [2]; [4]): 0.255; SSMD.LYZ.S (ISC-enriched organoids [2]; [5]): 0.091; SSMD.LYZ.S (ISC-enriched organoids [2]; [6]): −0.103; SSMD.LYZ.S (ISC-enriched organoids [2]; [7]): −1.030; Dose.FC.CTG (ISC-enriched organoids [3]; Dose 0.08 uM): 0.102 log 2 fold change; Z.CTG (ISC-enriched organoids [3]; Dose 0.08 uM): 0.243; Dose.FC.CTG (ISC-enriched organoids [3]; Dose 0.40 uM): 0.111 log 2 fold change; Z.CTG (ISC-enriched organoids [3]; Dose 0.40 uM): 0.265; Dose.FC.CTG (ISC-enriched organoids [3]; Dose 2.00 uM): −0.003 log 2 fold change; Z.CTG (ISC-enriched organoids [3]; Dose 2.00 uM): −0.008; Dose.FC.CTG (ISC-enriched organoids [3]; Dose 10.00 uM): −1.034 log 2 fold change; Z.CTG (ISC-enriched organoids [3]; Dose 10.00 uM): −2.471; SSMD.CTG (ISC-enriched organoids [3]; [4]): 0.218; SSMD.CTG (ISC-enriched organoids [3]; [5]): 0.279; SSMD.CTG (ISC-enriched organoids [3]; [6]): −0.009; SSMD.CTG (ISC-enriched organoids [3]; [7]): −1.277
